According to PMC9888480, “Carboranyl-1,8-naphthalimide intercalators induce lysosomal membrane permeabilization and ferroptosis in cancer cell lines” (Journal of Enzyme Inhibition and Medicinal Chemistry, 2023):
“Also recorded” adds a separate entry of the source.

What was measured:
HepG2 cells [1] = experiment: Apoptosis/necrosis assay by flow cytometry (YO-PRO-1/PI); type: cell-based, human; conditions: HepG2, 24 h, YO-PRO1/PI; for early apoptotic cells: half and total IC50 concentrations tested
Method: Apoptosis/necrosis assay was carried out by double staining of cells with YO-PRO-1 (Thermo Fisher Scientific) and propidium iodide (PI, Sigma-Aldrich) fluorescent dyes. Briefly, HepG2 cells (2 × 10^5) were seeded onto 6-well plates. […] Subsequently, the cells were detached with trypsin (Thermo Fisher Scientific), washed twice with DPBS (1 ml) (Thermo Fisher Scientific), and stained with YO-PRO-1 (0.5 µM) and PI (10 µg/ml) according to the manufacturer’s protocol for 30 min at 37 °C in the dark. Immediately after staining, the cells were analysed with 488 nm excitation using a FACSCalibur flow cytometer (Becton Dickinson), and data were analysed using the FlowJo software (Becton Dickinson).

ct-DNA [2] = experiment: UV–vis spectra titration with ct-DNA (binding constant Kb); parameters: species or system calf; conditions: for bathochromic effect: UV–vis, addition of 1.25–15 µM ct-DNA to 10 µM compound; for Kb compared to that of mitonafide: mitonafide Kb 2.54 × 10^5
Method: The measurements were performed by adding aliquots of DMSO stock solution of the tested compounds to the buffer solution (pH 7.4, 20 mM, 50 mM NaCl, Tris–HCl buffer, DMSO content of the final solutions = 0.54–0.65%) to the final concentration 10 µM. The tested compounds were incubated for 5 min, with increasing concentrations ranging from 0 to 15 µM of ct-DNA at 37 °C. Then, the UV–vis absorption spectra between 300 and 500 nm were recorded using a GBC Cintra10 UV–VIS spectrometer equipped with a GBC Thermocell Peltier Power Supply with the use of a 1-cm-path-length cell. The binding constant was calculated according to the following equation[70]: A0/A−A0= εG/εH−G−εG+ εG/εH−G−εG × 1/Kb[DNA] where Kb is the binding constant; A0 and a are absorbances of the free tested compound and the apparent one; εG and εH–G are their coefficient, respectively; [DNA] is the concentration of DNA in base pairs. The slope to intercept ratio of the plot between A0/A − A0 and 1/[DNA] yielded the binding constant.

HepG2 cells [3] = experiment: Oxidative stress (ROS) measurement by flow cytometry (H2DCFDA); type: cell-based, human; conditions: HepG2, 24 h, total IC50 concentration
Method: The HepG2 cells were seeded (2 × 10^5 cells/well) onto 12-well plates and cultured in supplemented EMEM at 37 °C under 5% CO2 saturation until 70–80% confluency was reached. […] The intracellular ROS level was analysed by staining with H2DCFDA (ex/em: ∼492–495/517–527 nm) in accordance with the manufacturer’s protocol (Thermo Fisher Scientific, Waltham, MA, USA), wherein ROS trigger the fluorescence. The cells were separated by trypsin (Corning®) and washed twice with DPBS (1 ml, Capricorn). The pelleted cells were suspended in 0.5 ml of DPBS containing H2DCFDA at the final concentration of 0.5 µM. In order to eliminate dead cells from analysis, propidium iodide (10 µg/ml) was also added to the staining mix. The cells were then incubated at 37 °C for 30 min in the dark and then analysed with excitation at 488 nm using a FACSCalibur flow cytometer (Becton Dickinson, Franklin Lakes, NJ, USA), and the data were analysed using the FlowJo software (Becton Dickinson).

ct-DNA [4] = experiment: Melting temperature (Tm) measurements of ct-DNA; type: binding, calf; conditions: r = [compound]/[ct-DNA] = 0.3, cacodylate buffer pH 7.0; Tm of free ct-DNA 74 °C; error ±0.5 °C
Method: The measurements were carried out by adding aliquots of DMSO stock solution of the tested compounds to the buffer solution (pH 7.0, 20 mM, cacodylate buffer, DMSO content of the final solution = 0.33–0.39%). Tm curves were collected at r = 0.3 (r = [compound]/[ct-DNA]) to assure the dominant binding mode. Thermal melting curves were plotted considering the absorption change at 260 nm as a function of temperature using a GBC Cintra10 UV–VIS spectrometer (Dandenong, Australia) equipped with a GBC Thermocell Peltier Power Supply (Dandenong, Australia) with the use of a 1-cm-path-length cell. The absorbance of the samples was monitored at 260 nm from 35 to 95 °C with a heating rate of 1 °C/min. Tm values are the midpoints or the transition curves determined from the maximum of the first derivative. ΔTm values were calculated by subtracting the Tm of the free nucleic acid from the Tm of the sample. All ΔTm values reported in the study were measured in triplicate. The error in ΔTm was ±0.5 °C.

HepG2 cells [5] = experiment: Real-time cell migration assay (xCELLigence); type: cell-based, human; conditions: one-fourth and half of IC50, 24 h pre-treatment
Method: Transwell cell migration experiments were performed using an xCELLigence RTCA Analyser (Roche, Switzerland) in CIM plates (ACEA Biosciences, San Diego, CA, USA). Each well consisted of an upper and a lower chamber separated by a microporous polyethylene terephthalate membrane containing randomly distributed 8-µm pores. Prior to the migration assay, the HepG2 cells (2 × 10^4) were seeded onto 48-well plates containing the growth medium (EMEM) and incubated until 70–80% confluency at 37 °C in a humidified atmosphere containing 5% CO2. […] Then, 160 µl of complete growth medium (supplemented with 10% FBS) was added to the lower chamber, and 50 µl of serum-free growth medium was added to the upper chambers of the CIM plate. The plates were incubated at 37 °C under 5% CO2 saturation for 1 h prior to insertion into the xCELLigence platform. To initiate a transwell migration experiment, the cells were detached with trypsin (Corning®), resuspended in the serum-free growth medium, and seeded in the upper chamber at a density of 1 × 10^4 cells in 100 µl per well that was previously treated with the compounds. The impedance of the microelectrode array was monitored and converted to CI. Normalisation values were recorded using the RTCA Software 1.2.1. Readouts were performed every 30 min for 72 h.

Substance | early apoptotic cells (HepG2 cells [1]) [%] | bathochromic effect (ct-DNA [2]) [nm] | Kb compared to that of mitonafide (ct-DNA [2]) | ROS generation (green fluorescence intensity) (HepG2 cells [3]) | ΔTm ct-DNA (ct-DNA [4]) [°C] | effect on migration of HepG2 cells (slope of cell index, first 24 h) (HepG2 cells [5]) | necrosis (PI positive cells) (HepG2 cells [1]) [%]
4-[(6-[(1,2-Dicarba-closo-dodecaborane-1-yl)ethylamino]hexyl)amino]-3-nitro-N-[2-(N-pyrrolidinyl)ethyl]-1,8-naphthalimide [Compound 36] | 12.55 | 7 | similar | weakest ROS inductor | 10.00 |  | 
4-[(6-[(1,2-Dicarba-closo-dodecaborane-1-yl)ethylamino]hexyl)amino]-N-[2-(dimethylamino)ethyl]-3-nitro-1,8-naphthalimide [Compound 34] | 9.12 | 9 |  | increased approximately twofold | 11.67 | highest influence on the migration activity | 
4-[(6-[(1,7-Dicarba-closo-dodecaborane-1-yl)ethylamino]hexyl)amino]-3-nitro-N-[2-(N-pyrrolidinyl)ethyl]-1,8-naphthalimide [Compound 37] | 12.56 | 8 |  | increased approximately twofold | 13.00 | highest influence on the migration activity | 
4-[(6-[(1,7-Dicarba-closo-dodecaborane-1-yl)ethylamino]hexyl)amino]-N-[2-(dimethylamino)ethyl]-3-nitro-1,8-naphthalimide [Compound 35] | 6.7 | 10 | approximately 1.5 fold | moderate effect | 13.00 | highest influence on the migration activity; also recorded: highest impairment | 55.75
